Values of other authors as cited in publication PMC11979273, “A phase I study to evaluate the safety, tolerability, and pharmacokinetics of HEC113995PA·H2O, a novel dual-acting serotonergic antidepressant, in healthy subjects” (Frontiers in Pharmacology, 2025).

Details: cited from earlier work

N#Cc1ccc2[nH]cc(CCCCN3CCN(c4ccc5oc(C(N)=O)cc5c4)CC3)c2c1 [Vilazodone]
AUC0-∞ (20 mg dose): 502 ng·h/mL | Cmax (20 mg dose): 28.5 ng/mL | Tmax (peak) (in vivo): 5 h | t1/2 (in vivo): 24.1 h
